Experimental data published in patent US7863241B2, “Compositions for treatment and prevention of pulmonary conditions” (The Scripps Research Institute, priority 2002, dated 2011).
“Also recorded” adds a separate entry of the source. Blank lines part the entries; values can stand above or below the compound they belong to.

Key:
[1] = test system: rabbits injured with LPS and PMA; assay: LPS/PMA lung injury in rabbits treated with anti-oxidant catalase; format: in vivo, rabbit; settings: for Albumin In BALF / BALF RBCs / Compliance / PaCO2 6 hr / PaO2 4.5 hr / PaO2 6 hr / Wet:Dry weight / Gross Pathology / Histologic Pathology: average ± SEM; for Wet:Dry weight: lung; for Gross Pathology / Histologic Pathology: on a scale of 0–4
Method: Procedures employed were similar to those used in the foregoing Examples. Lung injury is induced in rabbits (1.0-1.5 kg) by bronchoalveolar lavage (BAL) using 5 μg/ml bacterial LPS in saline at a dosage of 20 ml/kg. At 2.5 hrs after LPS administration, the rabbits received 20 ml/kg phorbol myristate acetate (PMA) by bronchoalveolar lavage. At 2.5 hours after LPS administration, animals in group 1 received the anti-oxidant catalase intratracheally. Animals in group 2 received catalase intratracheally and intravenously. Animals in group 3 received catalase intratracheally and intravenously, as well as 5mg/ml Model Surfactant Mixture (KL4) intratracheally. Animals in group 4 received no further treatment (control). The rabbits were ventilated at PIP […] PEEP 3 cm H2O pressure. The study was terminated at 6 hrs. Values in Tables 6 and 7 are averages+standard error of the mean (SEM).

[2] = test system: Phospholipase A2 (PLA2); settings: 30 min incubation, lavage fluid of rabbit 6015, increasing amounts of inhibitor
Method: Terminal lavage fluid was collected from rabbits experiencing pulmonary injury initiated by the intratracheal administration of partially purified antibodies directed against BSA (anti-BSA antibodies). Palmitoyl, oleoyl phosphotidylglycerol (POPG, Avanti Polar Lipids) was added to the lavage fluid as a substrate for detecting PLA2 activity in the lavage fluid. Prior to addition of the POPG substrate, the mixture was adjusted to a final concentration of 10 mM CaCl2, 100 mM KCl and 25 mM Tris-Cl, pH 8.5. This mixture was incubated at 37° C. Aliquots were removed over time and the amount of oleic acid released from the POPG substrate was measured by high pressure liquid chromatography (HPLC). The amount of oleic acid released was quantified from the height of the peak at 4.59 min elution time from a C-18 HPLC column, as measured by the absorbance at 207 nm.
BSA and anti-BSA antibodies were administered to rabbit 6015 and lavage fluids were obtained from rabbit 6015 as described in the previous Example. […] This mixture was incubated for 15 min. at 37° C. before addition of POPG substrate. PLA2 activity was measured using the height of the eluted oleic acid HPLC peak, as described in previous Examples.

[3] = molecular target: T1, human neutrophil elastase (HNE) (Homo sapiens, UniProt P08246); assay: Colorimetric assay of human neutrophil elastase inhibition; format: biochemical
T1 sequence (P08246 30-267): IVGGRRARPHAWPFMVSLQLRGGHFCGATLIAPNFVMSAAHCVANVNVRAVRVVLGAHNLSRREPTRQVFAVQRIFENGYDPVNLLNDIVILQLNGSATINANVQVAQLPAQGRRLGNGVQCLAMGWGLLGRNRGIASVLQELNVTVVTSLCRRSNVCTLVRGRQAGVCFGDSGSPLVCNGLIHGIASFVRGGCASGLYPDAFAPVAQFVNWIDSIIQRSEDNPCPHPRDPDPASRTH
Method: A peptide having the following sequence MeO-Suc-Ala-Ala-Pro-Val-pNA (SEQ ID NO:24) was used as an elastase substrate. One hundred (100) μL of a 0.425 mM solution of the SEQ ID NO:24 peptide substrate was placed in a series of microtiter plate wells. Varying amounts of human neutrophil elastase (HNE) were added to the microtiter plate wells. The optical density at 410 nm (OD410) was used to measure elastase activity, and the optical densities observed were plotted versus the amounts of HNE added to generate a standard curve.
To test the ability of a serine elastase inhibitor to inhibit human neutrophil elastase (HNE), a standard amount of 0.125 μg HNE was mixed with increasing amounts of a serine elastase inhibitor before addition of the elastase substrate described in Example 3.
0.02 μg of human neutrophil elastase (HNE), was incubated with 2 mg/ml of Model surfactant mixture, 100 μg/ml of a serine elastase inhibitor, or both Model surfactant mixture and the serine elastase inhibitor together. The HNE activity remaining was assayed using the calorimetric assay described above. The result is represented graphically in FIG. 8.

[4] = test system: elastase activity in rabbit BAL fluids; assay: Elastase activity in rabbit BAL fluids after addition of serine elastase inhibitor; format: biochemical; settings: 100 μg/ml inhibitor added to BAL fluids of six anti-BSA/BSA treated rabbits
Method: Six rabbits were treated with 3 mg anti-BSA/kg (rabbits 6098 and 6099) or 5 mg anti-BSA/kg (rabbits 6100-6103) was instilled intratracheally and 10 mg of BSA was given intravenously (6098-6101) to induce respiratory distress. Bronchoalveolar lavage (BAL) fluids were taken from the lungs of these rabbits six hours after the treatment and a colorimetric assay of elastase activity was performed on these BAL fluids. Elastase activity is expressed as the concentration of HNE that gives a corresponding OD at 410 nm. Additionally, the same assay was performed after the addition of 100 μg/ml of a serine elastase inhibitor to the BAL fluids.

[5] = test system: rabbits injured with LPS and PMA; assay: LPS/PMA-induced pulmonary injury in rabbits (ARDS Rabbit Model), terminal lavage analysis; format: in vivo
Method: The effects of Model surfactant mixture, the serine elastase inhibitor, and the combination of the two on pulmonary inflammation were evaluated on an ARDS Rabbit Model. These experiments are described in details in Examples 8 to 12. Twenty (20) rabbits were divided into five groups for this study. Pulmonary inflammation was induced in Groups 1-4 rabbits from stimulation by lavaging with bacterial lipopolysaccharide (LPS) and, 3 hours later, with phorbol myristate acetate (PMA). Additionally, as treatment, Group 2 rabbits received Model surfactant mixture, Group 3 rabbits received the serine elastase inhibitor, and Group 4 animals received both Model surfactant mixture and the serine elastase inhibitor. Group 5 rabbits were normal rabbits and were used as control. The animals were sacrificed at six (6) hr., the right lower lobe was lavaged three times and the lavage fluids were pooled (terminal lavage) for each animal. The level of injury and the effect of the treatments were measured by the amount of basement membrane protein fragments and red blood cells found in terminal lavage fluids.
LPS: Minn (List Biological). 5 mg vial. Animals were treated by quantitative lavage leaving 120 μg/kg in 8 ml/kg.
PMA: (Sigma) diluted in saline or Model surfactant mixture to 5 μg/mL Used 20 ml/kg/rabbit for lavage, leaving 20% of the dosage in the animal.
Model surfactant mixture: (Discovery Labs) 10 mg/ml. Use 20 ml/kg/rabbit for lavage, leaving 20% of the dosage in the animal.
Serine Elastase Inhibitor. Elafin (Astra-Zeneca) 3 mg/ml stock, dialyzed against saline to remove azide: 1.3 ml/kg Elafin was administered intravenously at 1.5 hr., 0.33 ml/kg was administered intratracheally (×2 sides) at 3 hr., and 0.66 ml/kg was administered intravenously at 4.5 hr.
Twenty NZW rabbits are divided into five (5) treatment groups with four (4) animals each. Lung injury is induced by two lavages with LPS in saline and one PMA treatment administered by lavage at 3 hr. Serine elastase inhibitor and Model surfactant mixture were separately and jointly tested to ascertain the degree to which these factors could reduce symptoms of inflammation. Treatments received by the different groups are as follows:
Group 1: The animals received two lavages with LPS in saline and one PMA treatment administered by lavage at 3 hr. A dosage of ^125I-BSA was given to the animals intravenously at 5.5 hr. and the animals were sacrificed at 6 hr.
Group 2: The animals received two lavages with LPS in saline, one PMA and Model surfactant mixture treatment administered by lavage at 3 hr. A dosage of ^125I-BSA was given to the animals intravenously at 5.5 hr. and the animals were sacrificed at 6 hr.
Group 3: The animals received two lavages with LPS in saline and one PMA treatment administered by lavage at 3 hr. […]

[6] = molecular target: T1, human neutrophil elastase (HNE); assay: Inhibition of HNE by terminal lavage fluid of treated rabbits; format: biochemical; settings: 0.02 μg HNE with 50 μl terminal lavage fluid of one representative rabbit per group
Method: The presence of elastase inhibitor(s) (or the residual activity) in the terminal lavage fluids prepared as described in Example 8) was tested. 0.02 μg of human neutrophil elastase (HNE), was incubated with 50 μl of terminal lavage fluid of one representative rabbit from each experimental group (Groups 1-5). HNE activities are assayed using the colorimetric assay as described in Example 1. The assay results are presented graphically in FIG. 9.

[7] = catalase IT & IV (combination: plus 5mg/ml Model Surfactant Mixture IT)

Compound: catalase
lung function (overall) ([1]; LPS/PMA injured rabbits, study terminated at 6 hrs): significantly improve lung function
Albumin In BALF [1, 7]: 0.50 ± 0.11
BALF RBCs [1, 7]: 2.3 ± 1.2 ×10^3
Compliance [1, 7]: 8.4 ± 0.3 ml at 12 cm H2O/Kg
PaCO2 6 hr [1, 7]: 36 ± 5
PaO2 4.5 hr [1, 7]: 129 ± 19
PaO2 6 hr [1, 7]: 124 ± 22
Wet:Dry weight [1, 7]: 8.0 ± 0.6
Gross Pathology [1, 7]: 1.1 ± 0.4
Histologic Pathology [1, 7]: 2.9 ± 0.8
Albumin In BALF ([1]; catalase IT): 0.65 ± 0.16
BALF RBCs ([1]; catalase IT): 6.1 ± 3.6 ×10^3
Compliance ([1]; catalase IT): 10.1 ± 1.8 ml at 12 cm H2O/Kg
PaCO2 6 hr ([1]; catalase IT): 40 ± 3
PaO2 4.5 hr ([1]; catalase IT): 128 ± 15
PaO2 6 hr ([1]; catalase IT): 119 ± 15
Wet:Dry weight ([1]; catalase IT): 7.4 ± 0.4
Gross Pathology ([1]; catalase IT): 1.6 ± 0.6
Histologic Pathology ([1]; catalase IT): 2.7 ± 0.6

Compound: CCc1c(CC(N)=O)c2cc(OCCCP(=O)(O)O)ccc2n1Cc1ccccc1 [LY311727]
PLA2 activity (release of oleic acid from POPG) [2]: decreasing amounts of PLA2 activity were observed

HNE activity remaining ([3]; 0.02 μg HNE, Model surfactant mixture 2 mg/ml, serine elastase inhibitor 100 μg/ml): Significant inhibition
HNE activity (OD410) versus log of amount of inhibitor ([3]; 0.125 μg HNE, increasing amounts of inhibitor, in vitro): HNE activity is inhibited in vitro
inhibition of HNE activity by terminal lavage fluid [6]: highly significant
Compound: Elafin (AQEPVKGPVSTKPGSCPIILIRCAMLNPPNRCLKDTDCPGIKKCCEGSCGMACFVPQ) [serine elastase inhibitor, Elafin (Astra-Zeneca) 3 mg/ml stock, dialyzed against saline]
Elastase activity in BAL fluids after added inhibitor [4]: inhibited in five out of the six BAL fluids; also recorded: In all cases, the elastase activity was inhibited
number of RBCs in terminal lavage fluid ([5]; 6 hr post LPS/PMA injury): greater reduction in injury
amount of protein in terminal lavage fluid ([5]; 6 hr post LPS/PMA injury, versus injured untreated group): failure of group 3, which received elastase inhibitor alone, to show a reduction in protein levels
mean protein value in terminal lavage fluid, one aberrant animal excluded ([5]; Group 3, 6 hr post LPS/PMA injury): 1.72 mg/mL
basement membrane damage (Western blot of basement membrane proteins in BAL fluid) ([5]; terminal lavage fluid, LPS/PMA injured rabbits): Amelioration of the damage in the basement membrane is observed
